Test results published in patent publication US9938292B2 (GUANGDONG ZHONGSHENG PHARMACEUTICAL CO., LTD, priority 2014, dated 2018).

tested on: Hedgehog signaling pathway; assay: Gli-Luc luciferase reporter gene assay in C3H10T1/2/Gli-Luc cells under Shh-N stimulation; type: cell-based; settings: Mus musculus, C3H 10T1/2, 24 h, luciferase RLU, read-out: biological activity: IC50 of the inhibitory activities of compounds on the hedgehog pathway
Procedure, shortened: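 C3H10T1/2 cells stably carrying a Gli-responsive luciferase reporter were stimulated with 30 nM Shh-N conditioned medium plus compound (7-point dilutions, duplicate) for 24 h at 37 °C. Luciferase luminescence read from lysates; IC50 by sigmoidal fit of RLU versus log concentration.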

Row | SMILES | IC50
1 | CC(C)(O)c1ccc(N2CCC3(CC2)CCN(c2cnc4c(-c5ccc(C#N)cc5)cccc4c2C2CC2)CC3)nc1 [Embodiment 256, 4-(4-cyclopropyl-3-(9-(5-(2-hydroxypropan-2-yl)pyridin-2-yl)-3,9-diazaspiro[5.5]undecan-3-yl)quinolin-8-yl)benzonitrile] | 100 to 500 nM
2 | C[C@@H]1CN(c2ccc(-n3ccc4c(-c5ccc(OC(F)(F)F)cc5)cccc4c3=O)cc2)C[C@H](C)O1 [Embodiment 75] | 1000 to 5000 nM
3 | COc1c(-c2ccc(N3C[C@@H](C)O[C@@H](C)C3)nc2)cnc2c(-c3ccnn3C)cccc12 [Embodiment 165] | 100 to 500 nM
4 | COc1c(-c2ccc(N3Cc4nnc(C(F)(F)F)n4C(C)C3)cc2)cnc2c(-c3ccc(C#N)cc3)cccc12 (centres unmarked) [Embodiment 190, 4-(4-methoxy-3-(4-(5-methyl-3-(trifluoromethyl)-5,6-dihydro-[1,2,4]triazolo[4,3-a]pyrazin-7(8H)-yl)phenyl)quinolin-8-yl)benzonitrile] | ≤ 50 nM
5 | Cc1cn(-c2ccc(N3CC(C)N(CC(C)(C)O)C(C)C3)cc2)c(=O)c2cccc(-c3ccc(C#N)cc3)c12 (centres unmarked) [Embodiment 37] | 100 to 500 nM
6 | C[C@@H]1CN(c2ccc(-c3cnc4c(-c5ccc(OC(F)(F)F)cc5)cccc4c3C3CC3)cn2)C[C@H](C)O1 [Embodiment 265, (2S,6R)-4-(5-(4-cyclopropyl-8-(4-(trifluoromethoxy)phenyl)quinolin-3-yl)pyridin-2-yl)-2,6-dimethylmorpholine] | 50 to 100 nM
7 | CC(C)c1c(-c2ccc(N3C[C@@H](C)O[C@@H](C)C3)nc2)cnc2c(-c3ccc(C#N)cc3)cccc12 [Embodiment 258, 4-(3-(6-((2S,6R)-2,6-dimethylmorpholino)pyridin-3-yl)-4-isopropylquinolin-8-yl) benzonitrile] | 100 to 500 nM
8 | COc1c(N2CCN(C(=O)CC3CCOCC3)CC2)cnc2c(-c3ccc(C#N)cc3)cccc12 [Embodiment 216] | 100 to 500 nM
9 | CNC(=O)N1C(C)CN(c2ccc(-n3cc(C)c4c(-c5ccc(C#N)cc5)cccc4c3=O)cc2)CC1C (centres unmarked) [Embodiment 30] | 100 to 500 nM
10 | COc1c(N2CCC(N3CC(C)OC(C)C3=O)CC2)cnc2c(-c3ccc(C#N)cc3)cccc12 (centres unmarked) [Embodiment 235, 4-(3-(4-(2,6-dimethyl-3-oxo-morpholino-4-yl)piperidin-1-yl)-4-methoxyquinolin-8-yl) benzonitrile] | ≤ 50 nM
11 | COc1c(N2CCN(S(=O)(=O)C(C)C)CC2)cnc2c(-c3ccc(C#N)cc3)cccc12 [Embodiment 249, 4-(4-methoxy-3-(4-(propane-2-sulfonyl)piperazin-1-yl)-quinolin-8-yl)benzonitrile] | ≤ 50 nM
12 | C[C@@H]1CN(c2ccc(NC(=O)c3cnc4c(-c5ccc(C#N)cc5)cccc4c3C3CC3)cn2)C[C@H](C)O1 [Embodiment 244, 8-(4-cyanophenyl)-4-cyclopropyl-N-(6-((2S,6R)-2,6-dimethylmorpholino)pyridin-3-yl) quinoline-3-carboxamide] | ≤ 50 nM
13 | CC(=O)Nc1c(-c2ccc(N3C[C@@H](C)O[C@@H](C)C3)cc2)cnc2c(-c3ccc(C#N)cc3)cccc12 [Embodiment 129, N-(8-(4-cyanophenyl)-3-(4-((2S,6R)-2,6-dimethylmorpholino)phenyl)quinolin-4-yl) acetamide] | 50 to 100 nM
14 | CCN1C(C)CN(c2ccc(-n3cc(C)c4c(-c5ccc(C#N)cc5)cccc4c3=O)cc2)CC1C (centres unmarked) [Embodiment 34] | 100 to 500 nM
15 | CC(C)(O)c1ccc(N2CCN(c3cnc4c(-c5ccc(C#N)cc5)cccc4c3C3CC3)C(=O)C2)nc1 [Embodiment 254, 4-(4-cyclopropyl-3-(4-(5-(2-hydroxypropan-2-yl)pyridin-2-yl)-2-oxopiperazin-1-yl)quinolin-8-yl)benzonitrile] | ≤ 50 nM
16 | COc1c(-c2ccc(N3CC(C)N(C(C)=O)C(C(C)(C)O)C3)cc2)cnc2c(-c3ccc(C#N)cc3)cccc12 (centres unmarked) [Embodiment 191, 4-(3-(4-(4-acetyl-3-(2-hydroxypropan-2-yl)-5-methylpiperazin-1-yl)phenyl)-4-methoxyquinolin-8-yl)benzonitrile] | ≤ 50 nM
17 | Cc1cn(-c2ccc(N3CC(C)N(C(=O)OC(C)(C)C)C(C)C3)cc2)c(=O)c2cccc(-c3ccc(C#N)cc3)c12 (centres unmarked) [Embodiment 16] | 100 to 500 nM
18 | C[C@@H]1CN(c2ccc(-c3cnc4c(-c5ccc(C#N)cc5)cccc4c3C#N)cc2)C[C@H](C)O1 [Embodiment 124] | 50 to 100 nM
19 | Cc1cn(-c2ccc(N3C[C@@H](C)O[C@@H](C)C3)cc2)c(=O)c2cccc(-c3ccc(Cl)cc3)c12 [Embodiment 51] | 100 to 500 nM
20 | Cc1cn(-c2ccc(N3CCN4CCC[C@H]4C3)cc2)c(=O)c2cccc(-c3ccc(C#N)cc3)c12 [Embodiment 10] | 100 to 500 nM
21 | Cc1cn(-c2ccc(N3CCN4C(=O)OCC4C3)cc2)c(=O)c2cccc(-c3ccc(C#N)cc3)c12 (centres unmarked) [Embodiment 42, 4-(4-methyl-1-oxo-2-(4-(3-oxotetrahydro-1H-oxazolo[3,4-a]pyrazin-7(3H)-yl)phenyl)-1,2-dihydroisoquinolin-5-yl)benzonitrile] | 100 to 500 nM
22 | C[C@@H]1CN(c2ccc(-c3cnc4c(-c5ccc(C#N)cc5)cncc4c3N(C)C)cc2)C[C@H](C)O1 [Embodiment 155, 4-(4-(dimethylamino)-3-(4-((2S,6R)-2,6-dimethylmorpholino)phenyl)-1,6-naphthyridin-8-yl)benzonitrile] | 100 to 500 nM
23 | CC1CN(c2cnc3c(-c4ccc(C#N)cc4)cccc3c2Br)CCN1c1ccc(C(C)(C)O)cn1 (centres unmarked) [Embodiment 219, 4-(4-bromo-3-(4-(5-(2-hydroxypropan-2-yl)pyridin-2-yl)-3-methylpiperazin-1-yl)quinolin-8-yl)benzonitrile] | ≤ 50 nM
24 | Cc1cn(-c2ccc(N3C[C@@H](C)O[C@@H](C)C3)cc2)c(=O)c2cccc(-c3ccc(F)cc3)c12 [Embodiment 50] | 500 to 1000 nM
25 | COc1c(-c2ccc(N3C[C@@H](C)O[C@@H](C)C3)nc2)cnc2c(-c3ccc(C#N)cc3)cccc12 [Embodiment 158, 4-(3-(6-((2S,6R)-2,6-dimethylmorpholino)pyridin-3-yl)-4-methoxyquinolin-8-yl) benzonitrile] | ≤ 50 nM
26 | C[C@@H]1CN(c2ccc(-c3cnc4c(-c5ccc(C#N)cc5)cccc4c3NS(C)(=O)=O)cc2)C[C@H](C)O1 [Embodiment 130] | 500 to 1000 nM

The next lines start with the values.

Row | IC50 | SMILES
27 | 1000 to 5000 nM | Cc1cn(-c2ccc(N3C[C@@H](C)O[C@@H](C)C3)cc2)c(=O)c2cccc(-c3cncnc3)c12 [Embodiment 54]
28 | ≤ 50 nM | COc1c(N2CCN(C(=O)NC3CCCCC3)CC2)cnc2c(-c3ccc(C#N)cc3)cccc12 [Embodiment 210]
29 | ≤ 50 nM | COc1c(N2CCN(c3ccc(C(C)(C)O)c(C(F)(F)F)n3)CC2)cnc2c(-c3ccc(C#N)cc3)cccc12 [Embodiment 222]
30 | 100 to 500 nM | COc1c(-c2ccc(N3C[C@@H](C)O[C@@H](C)C3)cc2)cnc2c(-c3cnc(N(C)C)nc3)cccc12 [Embodiment 110]
31 | 100 to 500 nM | COc1c(-c2ccc(N3C[C@@H](C)O[C@@H](C)C3)cc2)cnc2c(-c3ccc(S(=O)(=O)N4CCOCC4)cc3)cccc12 [Embodiment 96]
32 | ≤ 50 nM | COc1c(-c2ccc(N3C[C@@H](C)O[C@@H](C)C3)nc2)cnc2c(-c3ccc(C(F)(F)F)cc3)cccc12 [Embodiment 159]
33 | 50 to 100 nM | COc1c(-c2ccc(N3C[C@@H](C)N(C(=O)CN)[C@@H](C)C3)nc2)cnc2c(-c3ccc(C#N)cc3)cccc12 [Embodiment 198]
34 | ≤ 50 nM | COc1c(-c2ccc(N3C[C@@H](C)N(C(=O)C(C)(F)F)[C@@H](C)C3)nc2)cnc2c(-c3ccc(C#N)cc3)cccc12 [Embodiment 194]
35 | 100 to 500 nM | CCOC(=O)N1[C@H](C)CN(c2ccc(-n3cc(C)c4c(-c5ccc(C#N)cc5)cccc4c3=O)cc2)C[C@H]1C [Embodiment 20]
36 | 50 to 100 nM | CC(=O)N1C(C)CN(c2ccc(-n3cc(C)c4c(-c5ccc(C#N)cc5)cccc4c3=O)cc2)CC1C (centres unmarked) [Embodiment 22]
37 | 500 to 1000 nM | Cc1cn(-c2ccc(N3C[C@@H](C)O[C@@H](C)C3)nc2)c(=O)c2cccc(-c3ccc(C(F)(F)F)cc3)c12 [Embodiment 67]
38 | 500 to 1000 nM | COc1cc(-c2ccc(N3C[C@@H](C)O[C@@H](C)C3)cc2)nc2cccc(-c3ccc(C#N)cc3)c12 [Embodiment 142, 4-(2-(4-((2R,6S)-2,6-dimethylmorpholino)phenyl)-4-methoxyquinolin-5-yl) benzonitrile]
39 | ≤ 50 nM | COc1c(-c2ccc(N3C[C@@H](C)N(C(=O)c4cncc(C)c4)[C@@H](C)C3)cc2)cnc2c(-c3ccc(C#N)cc3)cccc12 [Embodiment 203]
40 | ≤ 50 nM | COc1c(N2CCC(O)(c3cc(C)cc(C)n3)CC2)cnc2c(-c3ccc(C#N)cc3)cccc12 [Embodiment 231, 4-(3-(4′-hydroxy-4,6-dimethyl-3′,4′,5′,6′-tetrahydro-2′H-[2,4′]bipyridyl-1′-yl)-4-methoxyquinolin-8-yl) benzonitrile]
41 | 100 to 500 nM | Cc1cn(-c2ccc(N3CCN4CCCC4C3)cc2)c(=O)c2cccc(-c3ccc(C#N)cc3)c12 (centres unmarked) [Embodiment 11]
42 | ≤ 50 nM | COc1c(N2CCN(C(=O)Nc3ccncc3)CC2)cnc2c(-c3ccc(C#N)cc3)cccc12 [Embodiment 209]
43 | 100 to 500 nM | CC(C)c1ccc(N2CCN(c3cnc4c(-c5ccc(C#N)cc5)cccc4c3C3CC3)CC2)nc1 [Embodiment 261, 4-(4-((4-cyclopropyl-35-isopropylpyridin-2-yl)-3-)-quinolin-8-yl)benzonitrile]
44 | ≤ 50 nM | COc1c(-c2ccc(N3C[C@@H](C)O[C@@H](C)C3)cc2)cnc2c(-c3ccc(C#N)cc3F)cccc12 [Embodiment 104]
45 | 500 to 1000 nM | Cc1cn(-c2ccc(N3C[C@@H](C)O[C@@H](C)C3)cc2)c(=O)c2cccc(-c3ccncc3)c12 [Embodiment 49]
46 | 1000 to 5000 nM | Cc1cn(-c2ccc(N3C[C@@H](C)O[C@@H](C)C3)cc2)c(=O)c2cccc(-c3ccc(C#N)cn3)c12 [Embodiment 55]
47 | 100 to 500 nM | COC(=O)N1[C@H](C)CN(c2ccc(-c3cnc4c(-c5ccc(C#N)cc5)cccc4c3OC)cn2)C[C@@H]1C [Embodiment 196]
